Active and inactive are the calls of the source.
Assays:
Kallikrein-7 = Kallikrein-7 (Homo sapiens, UniProt P49862); experiment: Fluorescence Intensity-based biochemical primary high throughput dose response assay to identify activators of kallikrein-7 (K7) zymogen.
HEK293 [1] = experiment: inhibition of NOD1-driven NF-kB reporter – cell-based, luminescence, uHTS, primary screen (AID 1578); format: functional; settings: Homo sapiens
[2] = Shn3 3'UTR reporter signal decrease – cell-based, Clone20 osteoblasts, firefly luciferase, cherry-pick, set 2, Schnurri-3 inhibitor project, dose response (AID 720490); format: functional;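 also: actives lower the luminescence signal as inhibitors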
[3] = EF1alpha-driven Renilla reporter with control 3'UTR suppression – Clone20-Shn3RL cells, dual-Glo, cherry-pick, set 2, counter-screen for Shn3 3'UTR targeting project, dose response (AID 720724); format: functional, cell-based; settings: Dual-Go Shn3RL
HEK293 [4] = experiment: cells; format: functional, cell-based; settings: Homo sapiens
[5] = non-specific 3'UTR reporter inhibition in Clone20-Shn3RL – cell-based, Renilla luciferase, cherry-picked, counter-screen for Shn3 inhibitor project, dose response (AID 624133); format: functional
[6] = loss of viability in HepG2 cells – cell-based, CellTiter-Glo, cherry-picked, cytotoxicity control for Shn3 inhibitor project, dose response (AID 624134); format: functional
HEK293 [7] = experiment: NOD2 signaling inhibitors in MDP-stimulated cells, cell-based, uHTS, luminescence (AID 2001); format: functional; settings: Homo sapiens
HEK293 [8] = experiment: cells; format: functional, cell-based; settings: Homo sapiens; remark: listed apart in the source
Tumor necrosis factor = Tumor necrosis factor (Homo sapiens, UniProt P01375); experiment: analog potency on TNFa NF-kB signaling – cell-based, revised, SAR follow-up (AID 2337); format: functional
Chain of Tumor necrosis factor (P01375 whole entry): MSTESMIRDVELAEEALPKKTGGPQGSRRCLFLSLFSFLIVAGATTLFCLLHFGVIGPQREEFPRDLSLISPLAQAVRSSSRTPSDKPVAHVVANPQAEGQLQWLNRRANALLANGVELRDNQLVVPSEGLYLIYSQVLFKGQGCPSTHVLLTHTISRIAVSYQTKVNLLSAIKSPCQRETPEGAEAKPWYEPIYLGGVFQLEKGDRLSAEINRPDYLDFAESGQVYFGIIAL

[9] = reduction of Shn3 3'UTR-driven luciferase in osteoblasts – cell-based, Clone20 osteoblasts, firefly luciferase, cherry-picked, dose response (AID 624132); format: functional;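 also: firefly luciferase luminescence from reporter carrying the Shn3 3'UTR in osteoblasts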
[10] = target: T1, Nucleotide-binding oligomerization domain-containing protein 1 (Homo sapiens, UniProt Q9Y239); experiment: blockers of NOD1 pathway activity – revised, SAR follow-up (AID 2333); format: functional
T1 sequence (Q9Y239 whole entry): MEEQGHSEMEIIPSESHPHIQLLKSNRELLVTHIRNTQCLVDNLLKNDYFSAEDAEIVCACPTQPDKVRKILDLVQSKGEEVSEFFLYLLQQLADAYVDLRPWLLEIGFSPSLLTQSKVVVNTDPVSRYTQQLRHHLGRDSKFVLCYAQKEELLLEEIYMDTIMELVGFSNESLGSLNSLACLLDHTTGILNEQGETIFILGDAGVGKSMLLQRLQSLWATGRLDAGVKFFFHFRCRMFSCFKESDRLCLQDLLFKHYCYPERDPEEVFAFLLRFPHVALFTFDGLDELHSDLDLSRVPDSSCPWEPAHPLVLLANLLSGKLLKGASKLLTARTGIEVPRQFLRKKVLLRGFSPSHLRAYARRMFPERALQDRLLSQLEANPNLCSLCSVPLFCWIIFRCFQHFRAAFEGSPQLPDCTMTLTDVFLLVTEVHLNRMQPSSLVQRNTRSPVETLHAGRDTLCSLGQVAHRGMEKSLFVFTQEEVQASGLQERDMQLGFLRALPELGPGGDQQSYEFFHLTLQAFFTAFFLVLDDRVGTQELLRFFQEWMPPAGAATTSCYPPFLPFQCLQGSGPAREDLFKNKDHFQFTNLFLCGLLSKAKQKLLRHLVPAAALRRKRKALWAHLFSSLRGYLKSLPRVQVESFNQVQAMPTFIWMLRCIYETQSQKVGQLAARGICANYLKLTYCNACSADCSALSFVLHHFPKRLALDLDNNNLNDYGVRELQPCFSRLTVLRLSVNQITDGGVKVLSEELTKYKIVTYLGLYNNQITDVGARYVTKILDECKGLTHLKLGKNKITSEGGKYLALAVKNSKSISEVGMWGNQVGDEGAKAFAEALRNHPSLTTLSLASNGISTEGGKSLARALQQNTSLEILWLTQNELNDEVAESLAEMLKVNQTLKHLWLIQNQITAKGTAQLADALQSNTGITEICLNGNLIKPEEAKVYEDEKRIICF

HEK293 [11] = experiment: cells; settings: Homo sapiens
fMet-Leu-Phe receptor = fMet-Leu-Phe receptor (Homo sapiens, UniProt P21462); experiment: formyl peptide receptor binders – dose response (AID 519); format: functional
Chain of fMet-Leu-Phe receptor (P21462 whole entry): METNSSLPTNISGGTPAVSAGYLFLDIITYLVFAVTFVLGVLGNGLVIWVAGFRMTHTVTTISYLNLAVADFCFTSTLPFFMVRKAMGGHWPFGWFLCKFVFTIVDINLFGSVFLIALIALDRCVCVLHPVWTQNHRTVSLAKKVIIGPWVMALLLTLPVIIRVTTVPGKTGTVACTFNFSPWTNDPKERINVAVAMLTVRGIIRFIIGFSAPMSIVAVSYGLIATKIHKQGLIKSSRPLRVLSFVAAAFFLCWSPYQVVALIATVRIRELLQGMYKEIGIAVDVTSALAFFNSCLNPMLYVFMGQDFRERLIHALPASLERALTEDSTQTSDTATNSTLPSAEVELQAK

Chain of Kallikrein-7 (P49862 whole entry): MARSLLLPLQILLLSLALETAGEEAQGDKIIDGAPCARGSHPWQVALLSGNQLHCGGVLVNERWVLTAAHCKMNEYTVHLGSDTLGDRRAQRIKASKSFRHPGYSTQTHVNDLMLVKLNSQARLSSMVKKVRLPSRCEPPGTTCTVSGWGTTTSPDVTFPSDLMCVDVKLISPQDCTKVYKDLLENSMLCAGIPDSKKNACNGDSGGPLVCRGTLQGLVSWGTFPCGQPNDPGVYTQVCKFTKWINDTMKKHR

For `COCCNC(=O)Cc1c(C)c2cc3c(cc2oc1=O)OC(C)(C)CC3`, which EC50 (Kallikrein-7) is on record?
The EC50 was > 69.6 µM (inactive).

For `c1ccc(CNc2ncnc3scc(-c4cccs4)c23)nc1`, which EC50 (HEK293 [1]) is on record?
Its EC50 is 3.58 µM (active).

And the AC50 [2]?
The AC50 was 3.71 µM (active).

What about the AC50 [3] of the same compound?
Its AC50 is 6.34 µM (active).

What about the IC50 (HEK293 [4]) of the same compound?
The IC50 was 6 µM (active).

What about the AC50 [5] of the same compound?
The AC50 was 29.8 µM (active).

What about the AC50 [6] of the same compound?
The AC50 was 67.1 µM (active).

What about the IC50 (HEK293 [7]) of the same compound?
Its IC50 is 5.05 µM (active).

And the IC50 (HEK293 [8])?
Its IC50 is 19.8 µM (active).

And the IC50 (Tumor necrosis factor)?
Its IC50 is 3.22 µM (active).

And the AC50 [9]?
Its AC50 is 3.59 µM (active).

What about the IC50 [10] of the same compound?
The IC50 was 2.69 µM (active).

And the IC50 (HEK293 [11])?
Its IC50 is 13.5 µM (active).

For `COCCCn1c(C(=O)NCCN2CCOCC2)cc2c(=O)n3cccc(C)c3nc21`, which EC50 (Kallikrein-7) is on record?
The EC50 was > 69.5 µM (inactive).

With `CCn1cc(CN(C)S(=O)(=O)c2ccc3ccccc3c2)c(C)n1` as the compound, how does the AC50 [2] read?
Its AC50 is 2.23 µM (active).

What about the AC50 [3] of the same compound?
The AC50 was 1.8 µM (active).

What about the AC50 [5] of the same compound?
The AC50 was 22.8 µM (active).

What about the AC50 [6] of the same compound?
The AC50 was 39.4 µM (active).

And the AC50 [9]?
Its AC50 is 1.56 µM (active).

For `COc1ccccc1C1C(C(=O)c2ccccc2)=C(O)C(=O)N1CC(C)C` (stereo not given), which Ki (fMet-Leu-Phe receptor) is on record?
The Ki was 5.5 µM (active).
